In patent US20240209028A1, “CNP COMPOUNDS” (priority 2022, published 2024):
Starred links: 1 amine or outer side, 2 acyl side, 3 side chain; linkers in the order of their positions; H or OH if unused. Positions of bridges follow the written chain, without caps; N, C: chain ends. Residues, ends and D or L forms follow the SMILES beside them. *: point of attachment. C20 diacid = O=C(O)CCCCCCCCCCCCCCCCCCC(=O)*; C18 diacid = O=C(O)CCCCCCCCCCCCCCCCC(=O)*; γGlu = O=C(O)[C@H](CCC(=O)[*:2])N[*:1]; AEEA = NCCOCCOCC(=O)O

The molecules below were run against T1, human natriuretic peptide receptor 2 (hNPR2) (Homo sapiens, UniProt P20594) (assay: In vitro hNPR2 activity assay (cGMP GloSensor reporter, HEK293)). Conditions: potency relative to CNP22 (0065).
T1 construct: expressed in transfected cells; host or cells: HEK293 (ATCC CRL-1573), clone 35, co-transfected with pGloSensor-42F
T1 sequence (P20594 23-1047): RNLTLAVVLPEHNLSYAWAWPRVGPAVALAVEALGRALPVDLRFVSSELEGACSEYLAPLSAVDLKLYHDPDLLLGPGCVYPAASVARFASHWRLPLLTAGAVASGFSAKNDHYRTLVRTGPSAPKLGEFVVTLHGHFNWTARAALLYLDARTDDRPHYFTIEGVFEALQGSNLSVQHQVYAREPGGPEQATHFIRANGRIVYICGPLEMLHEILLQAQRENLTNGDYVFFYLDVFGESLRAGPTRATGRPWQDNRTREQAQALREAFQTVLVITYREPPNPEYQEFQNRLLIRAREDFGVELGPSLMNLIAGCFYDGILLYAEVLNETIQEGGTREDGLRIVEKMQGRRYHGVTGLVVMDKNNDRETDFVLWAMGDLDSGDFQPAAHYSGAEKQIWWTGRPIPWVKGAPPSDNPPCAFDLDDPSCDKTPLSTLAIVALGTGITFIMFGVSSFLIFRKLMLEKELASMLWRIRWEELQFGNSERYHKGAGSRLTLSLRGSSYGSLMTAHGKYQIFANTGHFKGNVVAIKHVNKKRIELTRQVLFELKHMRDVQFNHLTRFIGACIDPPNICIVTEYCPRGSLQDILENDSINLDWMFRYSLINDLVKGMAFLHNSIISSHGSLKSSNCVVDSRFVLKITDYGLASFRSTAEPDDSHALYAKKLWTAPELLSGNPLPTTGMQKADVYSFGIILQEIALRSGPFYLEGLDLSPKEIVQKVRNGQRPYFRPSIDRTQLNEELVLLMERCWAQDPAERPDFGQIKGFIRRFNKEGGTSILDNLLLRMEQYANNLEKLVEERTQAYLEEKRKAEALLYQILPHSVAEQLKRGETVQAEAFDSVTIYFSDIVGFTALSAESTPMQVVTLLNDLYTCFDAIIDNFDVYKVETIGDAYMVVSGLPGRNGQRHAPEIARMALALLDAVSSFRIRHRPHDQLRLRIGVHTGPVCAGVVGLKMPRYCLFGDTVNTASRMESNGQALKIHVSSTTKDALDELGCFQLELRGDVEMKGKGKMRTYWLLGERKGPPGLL
Assay type: cell-based
Outline: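 Potency is the EC50 from a four-parameter logistic fit, also expressed relative to the in-plate CNP22 control (×100), with at least two replicates. Compounds (ten concentrations, […], HSA-free diluent with 1% OVA, 0.01% Tween20) were incubated 30 min at 37 °C on HEK293 cells co-expressing hNPR2 and a GloSensor cGMP luciferase. Luminescence detected with Bright-Glo.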

Going from `CC[C@H](C)[C@@H]1NC(=O)[C@H](CCCNC(=N)N)NC(=O)[C@H](CC(=O)O)NC(=O)[C@H](CC(C)C)NC(=O)[C@@H]2CCCN2C(=O)[C@H](CC(C)C)NC(=O)CNC(=O)[C@H](Cc2ccccc2)NC(=O)[C@@H](NC(=O)CNC(=O)[C@H](CCC(N)=O)NC(=O)[C@H](CO)NC(=O)[C@H](CO)NC(=O)CNC(=O)[C@H](CCCCN)NC(=O)[C@H](CCCCN)NC(=O)[C@H](CCC(N)=O)NC(=O)[C@H](C)NC(=O)CNC(=O)[C@H](CCCCN)NC(=O)[C@H](Cc2ccc(O)cc2)NC(=O)[C@H](Cc2c[nH]cn2)NC(=O)[C@H](CCCNC(=N)N)NC(=O)[C@H](C)NC(=O)[C@H](CCC(N)=O)NC(=O)[C@@H]2CCCN2C(=O)[C@H](Cc2c[nH]cn2)NC(=O)[C@H](CCC(=O)O)NC(=O)[C@H](CCC(N)=O)NC(=O)COCCOCCNC(=O)COCCOCCNC(=O)CC[C@H](NC(=O)CC[C@H](NC(=O)CC[C@H](NC(=O)CC[C@H](NC(=O)CCCCCCCCCCCCCCCCCCC(=O)O)C(=O)O)C(=O)O)C(=O)O)C(=O)O)CSSC[C@@H](C(=O)O)NC(=O)CNC(=O)[C@H](CC(C)C)NC(=O)CNC(=O)[C@H](CO)NC(=O)[C@H](CC(C)C)NC(=O)[C@H](CO)NC(=O)CNC1=O` [compound 1399] ({C20 diacid-γGlu-γGlu-γGlu-γGlu-AEEA-AEEA}-QEHPQARHYKGAQKKGSSQGCFGLPLDRIGSLSGLGC-OH; disulfide 21-37) to `CC[C@H](C)[C@@H]1NC(=O)[C@H](CCCNC(=N)N)NC(=O)[C@H](CC(=O)O)NC(=O)[C@H](CC(C)C)NC(=O)[C@@H]2CCCN2C(=O)[C@H](CC(C)C)NC(=O)CNC(=O)[C@H](Cc2ccccc2)NC(=O)[C@@H](NC(=O)CNC(=O)[C@H](CCC(N)=O)NC(=O)[C@H](CO)NC(=O)CNC(=O)CNC(=O)[C@H](CCCCN)NC(=O)[C@H](CCCCN)NC(=O)[C@H](CCC(N)=O)NC(=O)[C@H](C)NC(=O)CNC(=O)[C@H](CCCCN)NC(=O)[C@H](Cc2ccc(O)cc2)NC(=O)[C@H](CCCCN)NC(=O)[C@H](Cc2c[nH]cn2)NC(=O)[C@H](C)NC(=O)[C@H](CCC(N)=O)NC(=O)[C@@H]2CCCN2C(=O)[C@H](Cc2c[nH]cn2)NC(=O)[C@H](CCC(=O)O)NC(=O)[C@H](CCC(N)=O)NC(=O)COCCOCCNC(=O)COCCOCCNC(=O)CC[C@H](NC(=O)CC[C@H](NC(=O)CC[C@H](NC(=O)CC[C@H](NC(=O)CCCCCCCCCCCCCCCCC(=O)O)C(=O)O)C(=O)O)C(=O)O)C(=O)O)CSSC[C@@H](C(=O)O)NC(=O)CNC(=O)[C@H](CC(C)C)NC(=O)CNC(=O)[C@H](CO)NC(=O)[C@H](CC(C)C)NC(=O)[C@H](CO)NC(=O)CNC1=O` [compound 1400] ({C18 diacid-γGlu-γGlu-γGlu-γGlu-AEEA-AEEA}-QEHPQAHKYKGAQKKGGSQGCFGLPLDRIGSLSGLGC-OH; disulfide 21-37), the “hNPR2 0% HSA. [EC50% rel CNP]” value falls from 137.0% to 85.3%.

For `CC[C@H](C)[C@@H]1NC(=O)[C@H](CCCNC(=N)N)NC(=O)[C@H](CC(=O)O)NC(=O)[C@H](CC(C)C)NC(=O)[C@@H]2CCCN2C(=O)[C@H](CC(C)C)NC(=O)CNC(=O)[C@H](Cc2ccccc2)NC(=O)[C@@H](NC(=O)CNC(=O)[C@H](CCC(N)=O)NC(=O)[C@H](CO)NC(=O)CNC(=O)CNC(=O)[C@H](CCCCN)NC(=O)[C@H](CCCCN)NC(=O)[C@H](CCC(N)=O)NC(=O)[C@H](C)NC(=O)CNC(=O)[C@H](CCCCN)NC(=O)[C@H](Cc2ccc(O)cc2)NC(=O)[C@H](CCCCN)NC(=O)[C@H](CCCNC(=N)N)NC(=O)[C@H](C)NC(=O)[C@H](CCC(N)=O)NC(=O)[C@@H]2CCCN2C(=O)[C@H](Cc2c[nH]cn2)NC(=O)[C@H](CCC(=O)O)NC(=O)[C@H](CCC(N)=O)NC(=O)COCCOCCNC(=O)COCCOCCNC(=O)CC[C@H](NC(=O)CC[C@H](NC(=O)CC[C@H](NC(=O)CC[C@H](NC(=O)CC[C@H](NC(=O)CC[C@H](NC(=O)CCCCCCCCCCCCCCCCC(=O)O)C(=O)O)C(=O)O)C(=O)O)C(=O)O)C(=O)O)C(=O)O)CSSC[C@@H](C(=O)O)NC(=O)CNC(=O)[C@H](CC(C)C)NC(=O)CNC(=O)[C@H](CO)NC(=O)[C@H](CC(C)C)NC(=O)[C@H](CO)NC(=O)CNC1=O` [compound 1403] ({C18 diacid-γGlu-γGlu-γGlu-γGlu-γGlu-γGlu-AEEA-AEEA}-QEHPQARKYKGAQKKGGSQGCFGLPLDRIGSLSGLGC-OH; disulfide 21-37), the “hNPR2 0% HSA. [EC50% rel CNP]” value was 87.1%.
